# Patent EP1242382B1, “TRICYCLIC PROTEIN KINASE INHIBITORS” (Wyeth, priority 1999, dated 2001)
# Target: Mitogen Activated Protein Kinase (Mek-Erk) (Homo sapiens, UniProt P28482+Q02750)
# Experiment: Mitogen Activated Protein Kinase (MAPK) two component coupled test procedure
# Type: biochemical
# Protocol: To evaluate inhibitors of the MAP (mitogen activated protein) kinase a two component coupled standard pharmacological test procedure, which measures phosphorylation of a serine/threonine residue in an appropriate sequence in the substrate in the presence and absence of a putative inhibitor, is used. Recombinant human MEK 1 (MAPKK) is first used to activate recombinant human ERK2 (MAPK) and the activated MAPK (ERK) is incubated with substrate (myelin basic protein peptide (MBPP) or Myc peptide) in the presence of ATP, Mg^+2 and radiolabeled ^33P ATP. The phosphorylated peptide is captured on a P 81 phosphocellulose filter (paper filter or embedded in microtiter plate) washed and counted by scintillation methods.
# The peptide substrates used in the assay are MBPP, peptide substrate ([sequence]), or synthetic Myc substrate, ([sequence]•5 TFA). The recombinant enzymes used are prepared as GST fusion proteins of human ERK 2 and human MEK 1. […]
# The reaction is run as follows in 50 mM Tris kinase buffer, pH 7.4 in a reaction volume of 50 ul. […] The filters are briefly air dried before addition of scintillant and samples are counted in the appropriate scintillation counter set up for reading ^33P isotope.
# The raw data is captured as cpm. […] Mean cpm data is tabulated by group and % inhibition by a test compound is calculated as (corrected cpm control-corrected. cpm sample/control) X 100 = % inhibition).
# Chain of Mitogen Activated Protein Kinase (Mek-Erk) (Q02750 whole entry): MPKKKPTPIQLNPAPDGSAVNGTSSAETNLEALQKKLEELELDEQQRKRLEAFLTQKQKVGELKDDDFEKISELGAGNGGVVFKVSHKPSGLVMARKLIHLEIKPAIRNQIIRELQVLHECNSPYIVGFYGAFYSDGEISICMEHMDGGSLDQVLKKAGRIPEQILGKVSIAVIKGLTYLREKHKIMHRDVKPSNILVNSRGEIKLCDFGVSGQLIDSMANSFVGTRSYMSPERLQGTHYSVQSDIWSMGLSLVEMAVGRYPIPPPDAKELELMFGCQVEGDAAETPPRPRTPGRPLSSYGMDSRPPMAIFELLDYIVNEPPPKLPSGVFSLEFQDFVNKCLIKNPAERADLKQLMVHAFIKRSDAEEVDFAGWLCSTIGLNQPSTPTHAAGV
# Chain of Mitogen Activated Protein Kinase (Mek-Erk) (P28482 2-360): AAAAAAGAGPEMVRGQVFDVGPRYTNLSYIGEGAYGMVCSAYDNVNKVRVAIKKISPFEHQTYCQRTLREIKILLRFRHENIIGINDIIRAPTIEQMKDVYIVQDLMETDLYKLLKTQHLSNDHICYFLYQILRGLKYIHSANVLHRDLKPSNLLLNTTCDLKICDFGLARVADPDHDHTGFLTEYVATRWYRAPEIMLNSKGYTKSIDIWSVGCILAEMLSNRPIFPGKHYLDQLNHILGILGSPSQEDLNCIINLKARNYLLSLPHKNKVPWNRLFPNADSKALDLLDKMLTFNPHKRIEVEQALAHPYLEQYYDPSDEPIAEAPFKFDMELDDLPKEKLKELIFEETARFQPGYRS
compound,measurement,value
"N#Cc1cnc2cc3c(cc2c1Nc1ccc(Oc2ccccc2)cc1)ncn3CCN1CCOCC1 [Example 58, 3-[2-(4-Morpholinyl)ethyl]-8-(4-phenoxyanilino)-3H-imidazo[4,5-g]quinoline-7-carbonitrile]",IC50,> 10 µM
